Reference: patent publication US10800772B2 (Gilead Sciences, Inc., priority 2016, dated 2020)

Key:
Format in all cases: cell-based, HIV-1
[1] = system: HIV-IIIb (wildtype); test: Antiviral assay in MT4 cells, HIV-IIIb wildtype; settings: Human immunodeficiency virus 1, IIIB, MT4, 120 h, read-out: WT EC50
Protocol: (§1) Antiviral Assay in MT4 Cells
(§2) For the antiviral assay, 0.4 μL of 189X test concentration of 3-fold serially diluted compound in DMSO was added to 40 μL of cell growth medium (RPMI 1640, 10% FBS, 1% Penicillin-Streptomycin, 1% L-Glutamine, 1% HEPES) in each well of 384-well plate (10 concentrations) in quadruplicate.
(§3) 1 mL Aliquots of MT4 cells were pre-infected for 3 hours at 37° C. with 25 μL of cell growth medium (mock-infected) or a fresh 1:250 dilution of an HIV-IIIb (wildtype, IN T174I BT, or IN T174I DE) concentrated ABI stock (0.004 m.o.i.). IN T174I BT virus was derived from viral breakthrough (BT) assay as described in Mulato, A.; Hansen, D.; Thielen, A.; Porter, D.; Stepan, G.; White, K.; Daeumer, M.; Cihlar, T.; Yant, S. R. AIDS Research and Human Retrovirues, July 2016, ahead of print. doi:10.1089/aid.2016.0071. IN T174I DE virus was derived from serial passaging with dose escalation (DE) of test compound. Infected and uninfected cells were diluted in cell growth media and 35 μL (2000 cells) was added to each well of the assay plates.
(§4) Assay plates were then maintained in a humidified, 5% CO2 incubator at 37° C. After 5 days of incubation, 25 μl of 2× concentrated CellTiter-Glo™ Reagent (catalog # G7573, Promega Biosciences, Inc., Madison, Wis.) was added to each well of the assay plate. Cell lysis was carried out by incubating at room temperature for 10 minutes and then chemiluminescence was read using an Envision plate reader (PerkinElmer). EC50 values were calculated as the compound concentration that caused a 50% […] in luminescence signal, a measure of HIV-1 replication.

[2] = system: HIV-IIIb IN T174I BT; test: Antiviral assay in MT4 cells, HIV-IIIb IN T174I BT virus (from viral breakthrough); settings: Human immunodeficiency virus 1, IIIB, MT4, 120 h, read-out: T174I BT EC50, MT4 cells, HIV-IIIb IN T174I BT (viral breakthrough), 5 days, CellTiter-Glo
Protocol: as §1, §2, §3, §4

[3] = system: HIV-IIIb IN T174I DE; test: Antiviral assay in MT4 cells, HIV-IIIb IN T174I DE virus (from dose escalation passaging); settings: Human immunodeficiency virus 1, IIIB, MT4, 120 h, read-out: T174I DE EC50, MT4 cells, HIV-IIIb IN T174I DE (dose escalation), 5 days, CellTiter-Glo
Protocol: as §1, §2, §3, §4

SMILES | EC50 [1] | EC50 [2] | EC50 [3]
Cc1cc2nc(-c3ccc4c(c3)c(N3CC5(COC5)C3)nn4C)sc2c(-c2ccc(Cl)cc2)c1[C@H](OC(C)(C)C)C(=O)O [Compound 91, (S)-2-(tert-butoxy)-2-(7-(4-chlorophenyl)-5-methyl-2-(1-methyl-3-(2-oxa-6-azaspiro[3.3]heptan-6-yl)-1H-indazol-5-yl)benzo[d]thiazol-6-yl)acetic acid] | 11 nM | 1720 nM | 2440 nM
COCC(=O)N1CCC(c2nn(C)c3ccc(-c4nc5cc(C)c([C@H](OC(C)(C)C)C(=O)O)c(-c6ccc(Cl)cc6)c5s4)cc23)C1 (stereo partly drawn) [Compound 75, (S)-2-(tert-butoxy)-2-(7-(4-chlorophenyl)-2-(3-((R)-1-(2-methoxyacetyl)pyrrolidin-3-yl)-1-methyl-1H-indazol-5-yl)-5-methylbenzo[d]thiazol-6-yl)acetic acid] | 16 nM | 423 nM | 496 nM
COC(=O)N1CC[C@@H]1CN1CCC(c2nn(C)c3ccc(-c4nc5cc(C)c([C@H](OC(C)(C)C)C(=O)O)c(-c6ccc(Cl)cc6)c5s4)cc23)CC1 [Compound 5, (S)-2-(tert-butoxy)-2-(7-(4-chlorophenyl)-2-(3-(1-(((R)-1-(methoxycarbonyl)azetidin-2-yl)methyl)piperidin-4-yl)-1-methyl-1H-indazol-5-yl)-5-methylbenzo[d]thiazol-6-yl)acetic Acid] | 3 nM | 106 nM | 169 nM
Cc1cc2nc(-c3ccc4c(c3)c(C3CCN(C(=O)OC(C)(C)C)C3)nn4C)sc2c(-c2ccc(Cl)cc2)c1[C@H](OC(C)(C)C)C(=O)O (stereo partly drawn) [Compound 62, (2S)-2-(tert-butoxy)-2-(2-(3-(1-(tert-butoxycarbonyl)pyrrolidin-3-yl)-1-methyl-1H-indazol-5-yl)-7-(4-chlorophenyl)-5-methylbenzo[d]thiazol-6-yl)acetic acid] | 108 nM | 331 nM | 514 nM
Cc1cc2nc(-c3cnc4c(c3)c(C3CCN(C5CN(C(=O)OC(C)(C)C)C5)CC3)nn4C)sc2c(-c2ccc(Cl)cc2)c1[C@H](OC(C)(C)C)C(=O)O [Compound 116, (S)-2-(tert-butoxy)-2-(2-(3-(1-(1-(tert-butoxycarbonyl)azetidin-3-yl)piperidin-4-yl)-1-methyl-1H-pyrazolo[3,4-b]pyridin-5-yl)-7-(4-chlorophenyl)-5-methylbenzo[d]thiazol-6-yl)acetic acid] | 40 nM | 3810 nM | 5190 nM
COC(=O)N1CC(N2CCC(c3nn(C)c4ccc(-c5nc6cc(C)c([C@H](OC(C)(C)C)C(=O)O)c(-c7ccc(Cl)cc7)c6s5)nc34)CC2)C1 [Compound 167, (S)-2-(tert-butoxy)-2-(7-(4-chloro-phenyl)-2-(3-(1-(1-(methoxycarbonyl)azetidin-3-yl)piperidin-4-yl)-1-methyl-1H-pyrazolo[4,3-b]pyridin-5-yl)-5-methylbenzo[d]thiazol-6-yl) acetic acid] | 3 nM | 57 nM | 138 nM
Cc1cc2nc(-c3ccc4c(c3)c(C3CN(C(=O)OC(C)(C)C)C3)nn4C)sc2c(-c2ccc(Cl)cc2)c1[C@H](OC(C)(C)C)C(=O)O [Compound 53, (S)-2-(tert-butoxy)-2-(2-(3-(1-(tert-butoxycarbonyl)azetidin-3-yl)-1-methyl-1H-indazol-5-yl)-7-(4-chlorophenyl)-5-methylbenzo[d]thiazol-6-yl)acetic acid] | 45 nM | 8910 nM | 57000 nM
CCn1nc(C2CCN([C@H]3CCN(C(=O)OC)C3)CC2)c2cc(-c3nc4cc(C)c([C@H](OC(C)(C)C)C(=O)O)c(-c5ccc(Cl)cc5)c4s3)ccc21 [Compound 49, (S)-2-(tert-butoxy)-2-(7-(4-chlorophenyl)-2-(1-ethyl-3-(1-((S)-1-(methoxycarbonyl)pyrrolidin-3-yl)piperidin-4-yl)-1H-indazol-5-yl)-5-methylbenzo[d]thiazol-6-yl)acetic acid] | 4 nM | 79 nM | 286 nM
CC(=O)N1CC[C@@H]1CN1CCC(c2nn(C)c3ccc(-c4nc5cc(C)c([C@H](OC(C)(C)C)C(=O)O)c(-c6ccc(Cl)cc6)c5s4)cc23)CC1 [Compound 148, (S)-2-(2-(3-(1-(((R)-1-acetyl-azetidin-2-yl)methyl)piperidin-4-yl)-1-methyl-1H-indazol-5-yl)-7-(4-chloro-phenyl)-5-methylbenzo[d]thiazol-6-yl)-2-(tert-butoxy) acetic acid] | 12 nM | 143 nM | 199 nM
Cc1cc2nc(-c3ccc4c(c3)c(N3CCN5C(=O)COC[C@@H]5C3)nn4C)sc2c(-c2ccc(Cl)cc2)c1[C@H](OC(C)(C)C)C(=O)O [Compound 138, (S)-2-(tert-butoxy)-2-(7-(4-chloro-phenyl)-5-methyl-2-(1-methyl-3-((S)-4-oxohexa-hydropyrazino[2,1-c][1,4]oxazin-8 (1H)-yl)-1H-indazol-5-yl)benzo[d]thiazol-6-yl)acetic acid] | 7 nM | 373 nM | 678 nM
Cc1cc2nc(-c3ccc4c(c3)c(C3CN(C)C3)nn4C)sc2c(-c2ccc(Cl)cc2)c1[C@H](OC(C)(C)C)C(=O)O [Compound 57, (S)-2-(tert-butoxy)-2-(7-(4-chlorophenyl)-5-methyl-2-(1-methyl-3-(1-methylazetidin-3-yl)-1H-indazol-5-yl)benzo[d]thiazol-6-yl)acetic acid] | 13 nM | 4260 nM | 4140 nM
Cc1cc2nc(-c3ccc4c(c3)c(C3CCN(C(C)C)CC3)nn4C)sc2c(-c2ccc(Cl)cc2)c1[C@H](OC(C)(C)C)C(=O)O [Compound 127, (S)-2-(tert-butoxy)-2-(7-(4-chloro-phenyl)-2-(3-(1-isopropylpiperidin-4-yl)-1-methyl-1H-indazol-5-yl)-5-methylbenzo[d]thiazol-6-yl) acetic acid] | 8 nM | 932 nM | 1700 nM
CCOC(=O)N1CCC(c2nn(C)c3ccc(-c4nc5cc(C)c([C@H](OC(C)(C)C)C(=O)O)c(-c6ccc(Cl)cc6)c5s4)cc23)CC1 [Compound 24] | 16 nM | 769 nM | 1090 nM
COC(=O)N1CC[C@H](N2CCC(c3nn(C)c4ccc(-c5nc6cc(C)c([C@H](OC(C)(C)C)C(=O)O)c(-c7ccc(Cl)cc7)c6s5)cc34)CC2)C1 [Compound 162, (S)-2-(tert-butoxy)-2-(7-(4-chloro-phenyl)-2-(3-(1-((S)-1-(methoxy-carbonyl)pyrrolidin-3-yl)piperidin-4-yl)-1-methyl-1H-indazol-5-yl)-5-methylbenzo[d]thiazol-6-yl) acetic acid] | 5 nM | 149 nM | 272 nM
Cc1cc2nc(-c3ccc4c(n3)c(C3CCN(C5CC5)CC3)nn4C)sc2c(-c2ccc(Cl)cc2)c1[C@H](OC(C)(C)C)C(=O)O [Compound 187, (S)-2-(tert-butoxy)-2-(7-(4-chloro-phenyl)-2-(3-(1-cyclopropyl-piperidin-4-yl)-1-methyl-1H-pyrazolo[4,3-b]pyridin-5-yl)-5-methylbenzo[d]thiazol-6-yl) acetic acid] | 4 nM | 339 nM | 844 nM
